Source: patent EP1097196B2, “GL[…]” (priority 1998, dated 2000)

Legend:
Assay in all cases: Specific activity as kcat on purified enzyme
Type in all cases: biochemical
Details in all cases: pH 4.3, 37°C, purified sample
[1] = system: Aspergillus niger glucoamylase AMG G2 (SEQ ID NO: 2) variant G127A
Protocol: (§1) Maltose: 29mM (1g maltose in 100ml 50mM sodium acetate, pH 4.5) (Sigma) Maltoheptaose: 10 mM, 115 mg/10 ml (Sigma)
(§2) Determining Specific Activity As kcat (sec.^-1).
(§3) 750 microL substrate (1% maltose, 50 mM Sodium acetat, pH 4.3) is incubated 5 minutes at selected temperature, such as 37°C or 60°C.
(§4) 50 microL enzyme diluted in sodium acetate is added. Aliquots of 100 microL are removed after 0, 3, 6, 9 and 12 minutes and transferred to 100 microL 0.4 M Sodium hydroxide to stop the reaction. A blank is included. 20 microL is transferred to a Micro titre plates and 200 microL GOD-Perid solution is added. Absorbance is measured at 650 nm after 30 minutes incubation at room temperature. Glucose is used as standard and the specific activity is calculated as kcat (sec.^-1).
(§5) AMG G2 variants were constructed as described above in Example 1. The specific activity as kcat were measured on purified samples at pH 4.3, 37°C, using maltose and maltohepatose as substrate as described in the "Materials & Methods" section above. The specific activity as AGU/mg were also measured at pH 4.3, 37°C, using maltose as substrate as described in the "Materials & Methods" section above.

[2] = system: Aspergillus niger glucoamylase AMG G2 (SEQ ID NO: 2) variant G207N
Protocol: as §1, §2, §3, §4, §5

[3] = system: Aspergillus niger glucoamylase AMG G2 (SEQ ID NO: 2) variant N110T
Protocol: as §1, §2, §3, §4, §5

[4] = system: Aspergillus niger glucoamylase AMG G2 (SEQ ID NO: 2) variant S119P
Protocol: as §1, §2, §3, §4, §5

[5] = system: Aspergillus niger glucoamylase AMG G2 (SEQ ID NO: 2) variant V111P
Protocol: as §1, §2, §3, §4, §5

[6] = system: Aspergillus niger glucoamylase AMG G2 (wt), SEQ ID NO: 2
Protocol: as §1, §2, §3, §4, §5

Structure (SMILES)	Kcat (Maltose) ([1]; substrate maltose) [sec.-1]	Kcat (Maltose) ([2]; substrate maltose) [sec.-1]	Kcat (Maltose) ([3]; substrate maltose) [sec.-1]	Kcat (Maltose) ([4]; substrate maltose) [sec.-1]	Kcat (Maltose) ([5]; substrate maltose) [sec.-1]	Kcat (Maltose) ([6]; substrate maltose) [sec.-1]	Kcat (Maltoheptaose) ([1]; substrate maltoheptaose) [sec.-1]	Kcat (Maltoheptaose) ([2]; substrate maltoheptaose) [sec.-1]	Kcat (Maltoheptaose) ([3]; substrate maltoheptaose) [sec.-1]	Kcat (Maltoheptaose) ([4]; substrate maltoheptaose) [sec.-1]	Kcat (Maltoheptaose) ([5]; substrate maltoheptaose) [sec.-1]	Kcat (Maltoheptaose) ([6]; substrate maltoheptaose) [sec.-1]
OC[C@H]1O[C@H](O[C@H]2[C@H](O)[C@@H](O)C(O)O[C@@H]2CO)[C@H](O)[C@@H](O)[C@@H]1O (mixture of isomers) [Maltose]	21.0	30.5	9.7	6.2	12.0	6.0	–	–	–	–	–	–
OC[C@H]1O[C@H](O[C@H]2[C@H](O)[C@@H](O)[C@@H](O[C@H]3[C@H](O)[C@@H](O)[C@@H](O[C@H]4[C@H](O)[C@@H](O)[C@@H](O[C@H]5[C@H](O)[C@@H](O)[C@@H](O[C@H]6[C@H](O)[C@@H](O)[C@@H](O[C@H]7[C@H](O)[C@@H](O)C(O)O[C@@H]7CO)O[C@@H]6CO)O[C@@H]5CO)O[C@@H]4CO)O[C@@H]3CO)O[C@@H]2CO)[C@H](O)[C@@H](O)[C@@H]1O (stereo partly drawn) [Maltoheptaose]	–	–	–	–	–	–	40.0	36.3	27.8	44.0	43.2	38
